# According to patent US8314079B2, “Hyaluronic acid oligosaccharide fractions and drugs containing the same” (Seikagaku Corporation, priority 2000, dated 2012):
# Test system: HSF1
# Assay: Phosphorylation (activation) of HSF1 in heat-shocked K562 cells, band shift 66 kDa to 81 kDa by SDS-PAGE/Western blotting
# Type: cell-based, human
# Source text: It is known that HSF1 (heat shock factor 1) protein is a transcription factor of Hsp70 (J. Biol. Chem., 271, pp. 3355-3358, 1996). Moreover, the HSF1 protein can be activated by phosphorylation, and this phosphorylation can be detected based on band shift in SDS-polyacrylamide gel electrophoresis (SDS-PAGE) (apparent molecular weight shifts from about 66 kDa to about 81 kDa). By utilizing this fact, the HA oligosaccharides of various sizes were allowed to act on the K562 cells given with stress, and the aforementioned band shift was detected to investigate the degree of the phosphorylation (activation) of HSF1.
# HA4, ΔHA4, HA6, HA8, HA2-18 and HA 8-14 were each added to a medium containing the aforementioned cells at a concentration of 1, 10 or 100 ng/mL. Then, the cells were immediately transferred into an environment at 42° C. to be given with heat shock and incubated for 20 minutes. After the incubation, the cells were collected by centrifugation, and SDS-PAGE (gel concentration: 10%) was performed. Thereafter, Western blotting was performed by using anti-HSF1 monoclonal antibodies (produced by Stressgene) as primary antibodies and goat anti-mouse IgG monoclonal antibodies (produced by Jackson Lab) as secondary antibodies to detect the shift of a band of 66 kDa (HSF1 not phosphorylated) to a band of 81 kDa (phosphorylated HSF1).
# In order to confirm the reproducibility of Experiment 1, the band shift was detected in the same manner as in Experiment 1 by using HA4, ΔHA4, HA8 and HA84 except that HA was added in a single kind of amount of 100 ng/mL, and the heat shock was given at 43° C. In FIG. 41, the first lane from the left indicates the result obtained with an extract of cells incubated at 37° C. (no addition of HA oligosaccharide), the second lane indicates the result obtained with an extract of cells subjected to 43° C. (no addition of HA oligosaccharide), and the first lane from the right indicates the result of detection of HSF1 (derived from bacteria) as a standard.
# In order to investigate whether the action observed in Experiment 2 was specific to the saccharide chain basic structure of HA oligosaccharides, the following comparative experiment was performed by using chondroitin oligosaccharides. […] Therefore, it can be said that Ch is a substance extremely structurally analogous to HA, and the same shall also apply to the oligosaccharides thereof. • Saturated Ch tetrasaccharide (Ch4) • GlcAβ1-3GalNAcβ1-4GlcAβ1-3GalNAc • Saturated Ch hexasaccharide (Ch6) • GlcAβ1-3GalNAcβ1-4GlcAβ1-3GalNAcβ1-4GlcAβ1-3GalNAc • Saturated Ch octasaccharide (Ch8) • GlcAβ1-3GalNAcβ1-4GlcAβ1-3GalNAcβ1-4GlcAβ1-3GalNAcβ1-4GlcAβ1-3GalNAc
# The same experiment as Experiment 2 was performed by using these oligosaccharides.
# [1] = Experiment 2 (and comparative Experiment 3), 100 ng/mL, heat shock 43° C.
smiles,measurement,setting,value
"CC(=O)N[C@H]1[C@H](O[C@H]2[C@H](O)[C@@H](O)[C@H](O[C@H]3[C@H](O)[C@@H](CO)OC(O)[C@@H]3NC(C)=O)O[C@@H]2C(=O)O)O[C@H](CO)[C@@H](O)[C@@H]1O[C@@H]1O[C@H](C(=O)O)[C@@H](O)[C@H](O)[C@H]1O.[Na].[Na] (stereo partly drawn) [HA4, sodium β-D-glucopyranosyluronate-(1→3)-2-acetamido-2-deoxy-β-D-glucopyranosyl-(1→4)-(sodium β-D-glucopyranosyluronate)-(1→3)-2-acetamido-2-deoxy-D-glucopyranose]",shift of a band of 66 kDa (HSF1 not phosphorylated) to a band of 81 kDa (phosphorylated HSF1),"Experiment 1, 1, 10 or 100 ng/mL, heat shock 42° C., 20 minutes",shift to the 81 kDa band was observed depending on the amount of the added HA oligosaccharide
same,amount of HSF1 per se,[1],amounts of both HSF1 of 66 kDa and 81 kDa per se were also increased
same,band shift of HSF1 (66 kDa to 81 kDa),[1],band shift was observed
